The structures appear in SMILES notation.

One test concerns the target T1, ALK (Homo sapiens, UniProt Q9UM73).
T1 construct: host or cells: baculovirus expression system
The test is described as follows: ALK Kinase Assay (ELISA/TRF, PLC-γ substrate). It is filed as biochemical. As to conditions: ALK Kinase Inhibition; read-out: ALK Potency. The procedure, abridged:
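Wells were coated with 10 μg/mL phospholipase C-γ substrate in TBS, and the reaction was started by adding 30 ng/ml ALK enzyme and run at 37° C for 15 minutes. Phosphorylated product was detected with Eu-N1-labeled PT66 antibody, and IC50 values came from sigmoidal variable-slope fits of percent inhibition against log concentration.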
(In general: ELISA stands for enzyme-linked immunosorbent assay.)

In a further test the target is T2, JAK2 (Homo sapiens, UniProt O60674).
T2 construct: host or cells: baculovirus expression system
Put plainly: Recombinant Human JAK2 Kinase Assay (TRF). Type of test: biochemical. As to conditions: JAK2 Kinase Inhibition; read-out: JAK2 Potency. Put shortly: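 TRF read-out: Eu-N1 PY100 anti-phosphotyrosine antibody detects product. Enzyme is baculovirus-expressed JAK2 at 15 ng/ml; substrate is a biotinyl 15-mer peptide bound to Neutravidin-coated wells. Buffer 20 mM HEPES pH 7.2, 0.2 μM ATP, 1 mM MnCl2, 0.1% BSA, 2.5% DMSO final; 20 min, RT.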

T2 sequence (O60674 whole entry): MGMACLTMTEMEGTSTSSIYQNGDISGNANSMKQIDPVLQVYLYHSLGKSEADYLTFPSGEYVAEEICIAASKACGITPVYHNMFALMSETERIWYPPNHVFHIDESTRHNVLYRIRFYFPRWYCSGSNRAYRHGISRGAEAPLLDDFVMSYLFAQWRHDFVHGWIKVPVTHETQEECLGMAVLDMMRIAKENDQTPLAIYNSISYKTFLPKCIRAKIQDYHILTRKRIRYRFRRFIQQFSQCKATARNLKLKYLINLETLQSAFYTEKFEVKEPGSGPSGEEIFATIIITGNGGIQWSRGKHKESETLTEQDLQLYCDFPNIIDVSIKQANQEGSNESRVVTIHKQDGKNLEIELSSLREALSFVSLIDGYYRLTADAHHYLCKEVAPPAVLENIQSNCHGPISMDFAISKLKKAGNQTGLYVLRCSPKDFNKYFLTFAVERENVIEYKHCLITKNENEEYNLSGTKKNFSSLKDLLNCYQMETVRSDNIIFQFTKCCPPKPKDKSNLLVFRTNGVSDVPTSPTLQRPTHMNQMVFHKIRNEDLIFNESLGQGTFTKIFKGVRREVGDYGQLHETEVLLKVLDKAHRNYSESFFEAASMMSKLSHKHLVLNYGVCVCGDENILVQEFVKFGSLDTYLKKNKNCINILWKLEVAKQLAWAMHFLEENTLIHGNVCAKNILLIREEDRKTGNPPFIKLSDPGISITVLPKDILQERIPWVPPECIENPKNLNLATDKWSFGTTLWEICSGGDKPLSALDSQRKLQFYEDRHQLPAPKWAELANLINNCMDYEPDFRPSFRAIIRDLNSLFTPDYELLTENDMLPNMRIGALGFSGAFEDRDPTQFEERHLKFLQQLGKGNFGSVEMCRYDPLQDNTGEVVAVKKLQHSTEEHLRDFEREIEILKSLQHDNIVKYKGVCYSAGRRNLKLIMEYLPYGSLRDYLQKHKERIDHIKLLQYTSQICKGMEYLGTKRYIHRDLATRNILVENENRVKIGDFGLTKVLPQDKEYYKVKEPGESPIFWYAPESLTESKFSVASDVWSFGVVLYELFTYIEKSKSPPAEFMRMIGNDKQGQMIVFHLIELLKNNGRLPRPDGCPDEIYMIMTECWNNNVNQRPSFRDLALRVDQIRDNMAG
T1 sequence (Q9UM73 19-1620): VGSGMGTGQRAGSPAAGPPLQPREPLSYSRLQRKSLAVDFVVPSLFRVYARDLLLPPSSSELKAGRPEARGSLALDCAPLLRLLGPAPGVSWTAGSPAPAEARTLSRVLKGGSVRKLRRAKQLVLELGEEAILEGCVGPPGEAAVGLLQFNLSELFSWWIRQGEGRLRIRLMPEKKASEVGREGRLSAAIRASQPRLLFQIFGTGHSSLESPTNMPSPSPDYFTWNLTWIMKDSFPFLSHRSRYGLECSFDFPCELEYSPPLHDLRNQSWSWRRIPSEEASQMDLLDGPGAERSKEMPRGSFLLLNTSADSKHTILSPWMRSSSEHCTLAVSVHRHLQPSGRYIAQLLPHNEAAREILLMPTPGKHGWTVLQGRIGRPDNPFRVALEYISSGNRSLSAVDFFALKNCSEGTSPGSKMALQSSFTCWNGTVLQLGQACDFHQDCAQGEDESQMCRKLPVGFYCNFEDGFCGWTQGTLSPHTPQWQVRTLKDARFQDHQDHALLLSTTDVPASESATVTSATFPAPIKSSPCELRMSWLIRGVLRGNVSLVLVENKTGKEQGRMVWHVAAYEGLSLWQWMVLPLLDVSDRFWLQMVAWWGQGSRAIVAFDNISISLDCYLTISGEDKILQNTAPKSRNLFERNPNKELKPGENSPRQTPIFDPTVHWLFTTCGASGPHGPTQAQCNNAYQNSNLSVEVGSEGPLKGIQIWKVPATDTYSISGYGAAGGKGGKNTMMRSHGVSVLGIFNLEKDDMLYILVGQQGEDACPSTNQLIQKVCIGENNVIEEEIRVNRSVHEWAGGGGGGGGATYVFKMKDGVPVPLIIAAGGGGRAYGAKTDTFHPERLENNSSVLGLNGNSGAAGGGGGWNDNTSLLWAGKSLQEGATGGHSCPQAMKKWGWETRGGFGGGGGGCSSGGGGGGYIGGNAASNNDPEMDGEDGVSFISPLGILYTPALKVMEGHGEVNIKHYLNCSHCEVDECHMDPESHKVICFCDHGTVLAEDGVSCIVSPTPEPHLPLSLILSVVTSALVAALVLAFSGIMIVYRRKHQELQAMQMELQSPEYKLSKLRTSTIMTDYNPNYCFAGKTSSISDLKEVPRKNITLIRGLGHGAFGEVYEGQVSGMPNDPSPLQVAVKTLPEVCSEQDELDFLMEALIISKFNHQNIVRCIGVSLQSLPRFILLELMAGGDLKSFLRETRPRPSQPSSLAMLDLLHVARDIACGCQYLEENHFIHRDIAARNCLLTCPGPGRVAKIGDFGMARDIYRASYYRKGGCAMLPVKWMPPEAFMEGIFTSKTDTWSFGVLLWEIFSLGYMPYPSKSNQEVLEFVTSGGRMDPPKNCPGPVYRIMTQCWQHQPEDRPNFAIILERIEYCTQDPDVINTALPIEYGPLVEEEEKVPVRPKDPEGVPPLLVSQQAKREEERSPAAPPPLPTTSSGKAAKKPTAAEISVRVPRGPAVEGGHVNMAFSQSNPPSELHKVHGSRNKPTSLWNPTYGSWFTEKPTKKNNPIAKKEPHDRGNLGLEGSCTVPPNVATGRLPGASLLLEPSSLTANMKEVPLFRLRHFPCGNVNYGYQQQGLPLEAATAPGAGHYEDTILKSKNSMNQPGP

On to `CN1CCN(c2ccc(Nc3ncc4c(Br)cc(-c5ccc(S(C)(=O)=O)cc5)n4n3)cc2)CC1` [Example 91, [5-Bromo-7-(4-methanesulfonyl-phenyl)-pyrrolo[2,1-f][1,2,4]triazin-2-yl]-[4-(4-methyl-piperazin-1-yl)-phenyl]-amine], for which the IC50 on ALK was 100 to 1000 nM; on JAK2, under 100 nM.
Taken in the same sequence, the figures for `CC1(C)CCC(=O)Nc2cc(Nc3ncc4ccc(-c5ccc(S(C)(=O)=O)cc5)n4n3)ccc21` [Example 92, 8-[7-(4-Methanesulfonyl-phenyl)-pyrrolo[2,1-f][1,2,4]triazin-2-ylamino]-5,5-dimethyl-1,3,4,5-tetrahydro-benzo[b]azepin-2-one] were 1000 to 10000 nM and under 100 nM.
In the case of `COc1ccccc1-c1ccc2cnc(Nc3ccc(OCCN4CCN(C)CC4)cc3)nn12` [Example 94, [7-(2-Methoxy-phenyl)-pyrrolo[2,1-f][1,2,4]triazin-2-yl]-{4-[2-(4-methyl-piperazin-1-yl)-ethoxy]-phenyl}-amine], the IC50 on ALK and on JAK2 was under 100 nM in each case.
Turning to `CS(=O)(=O)c1cccc(-c2ccc3cnc(Nc4ccc(N5CCN(CCO)CC5)cc4)nn23)c1` [Example 95, 2-(4-{4-[7-(3-Methanesulfonyl-phenyl)-pyrrolo[2,1-f][1,2,4]triazin-2-ylamino]-phenyl}-piperazin-1-yl)-ethanol], the IC50 on ALK is 100 to 1000 nM; on JAK2 it was under 100 nM.
On to `CS(=O)(=O)c1cccc(-c2ccc3cnc(Nc4ccc(N5CCC(CO)CC5)cc4)nn23)c1` [Example 96, (1-{4-[7-(3-Methanesulfonyl-phenyl)-pyrrolo[2,1-f][1,2,4]triazin-2-ylamino]-phenyl}-piperidin-4-yl)-methanol], for which the results for the IC50 at ALK and at JAK2 were 100 to 1000 nM and under 100 nM, respectively.
In the same order, the values of `c1ccc(Sc2ccc3cnc(Nc4ccc(N5CCOCC5)cc4)nn23)cc1` [Example 97, (4-Morpholin-4-yl-phenyl)-(7-phenylsulfanyl-pyrrolo[2,1-f][1,2,4]triazin-2-yl)-amine] are 100 to 1000 nM and under 100 nM.
In the same order, the values of `COc1ccccc1Sc1ccc2cnc(Nc3ccc(N4CCN(C)CC4)cc3)nn12` [Example 98, [7-(2-Methoxy-phenylsulfanyl)-pyrrolo[2,1-f][1,2,4]triazin-2-yl]-[4-(4-methyl-piperazin-1-yl)-phenyl]-amine] are 100 to 1000 nM and under 100 nM.
Taken in the same sequence, the figures for `CN1CCN(c2ccc(Nc3ncc4c(Br)cc(-c5ccccc5)n4n3)cc2)CC1` [Example 100, (5-Bromo-7-phenyl-pyrrolo[2,1-f][1,2,4]triazin-2-yl)-[4-(4-methyl-piperazin-1-yl)-phenyl]-amine] were 100 to 1000 nM and under 100 nM.
For `COc1ccccc1-c1cc(Br)c2cnc(Nc3ccc(N4CCN(C)CC4)cc3)nn12` [Example 101, [5-Bromo-7-(2-methoxy-phenyl)-pyrrolo[2,1-f][1,2,4]triazin-2-yl]-[4-(4-methyl-piperazin-1-yl)-phenyl]-amine], the IC50 on ALK and on JAK2 was under 100 nM in each case.
With `COc1ccccc1-c1cc(Br)n2nc(Nc3ccc(N4CCN(C)CC4)cc3)ncc12` [Example 102, [7-Bromo-5-(2-methoxy-phenyl)-pyrrolo[2,1-f][1,2,4]triazin-2-yl]-[4-(4-methyl-piperazin-1-yl)-phenyl]-amine], the IC50 at ALK is over 10000 nM; at JAK2 it was 1000 to 10000 nM.
Take `C=Cc1cc(-c2ccccc2OC)n2nc(Nc3ccc(N4CCN(C)CC4)cc3)ncc12` [Example 103, [7-(2-Methoxy-phenyl)-5-vinyl-pyrrolo[2,1-f][1,2,4]triazin-2-yl]-[4-(4-methyl-piperazin-1-yl)-phenyl]-amine]: the IC50 at ALK was 100 to 1000 nM; at JAK2 it was under 100 nM.
For the molecule `C=Cc1cc(-c2ccc(S(C)(=O)=O)cc2)n2nc(Nc3ccc(N4CCN(C)CC4)cc3)ncc12` [Example 104, [7-(4-Methanesulfonyl-phenyl)-5-vinyl-pyrrolo[2,1-f][1,2,4]triazin-2-yl]-[4-(4-methyl-piperazin-1-yl)-phenyl]-amine], the results for the IC50 at ALK and at JAK2 were 1000 to 10000 nM and under 100 nM, respectively.
Consider `COc1ccccc1-c1cc(C)c2cnc(Nc3ccc(N4CCN(C)CC4)cc3)nn12` [Example 105, [7-(2-Methoxy-phenyl)-5-methyl-pyrrolo[2,1-f][1,2,4]triazin-2-yl]-[4-(4-methyl-piperazin-1-yl)-phenyl]-amine], for which the IC50 at ALK and at JAK2 was under 100 nM in each case.
As to `CCc1cc(-c2ccccc2OC)n2nc(Nc3ccc(N4CCN(C)CC4)cc3)ncc12` [Example 106, [5-Ethyl-7-(2-methoxy-phenyl)-pyrrolo[2,1-f][1,2,4]triazin-2-yl]-[4-(4-methyl-piperazin-1-yl)-phenyl]-amine], the IC50 at ALK was 100 to 1000 nM; at JAK2, under 100 nM.
In the same order, the values of `Cc1cc(-c2ccc(S(C)(=O)=O)cc2)n2nc(Nc3ccc(N4CCOCC4)cc3)ncc12` [Example 107, [7-(4-Methanesulfonyl-phenyl)-5-methyl-pyrrolo[2,1-f][1,2,4]triazin-2-yl]-(4-morpholin-4-yl-phenyl)-amine] are 100 to 1000 nM and under 100 nM.
`Cc1cc(-c2ccc(S(C)(=O)=O)cc2)n2nc(Nc3ccc(N4CCN(C)CC4)cc3)ncc12` [Example 108, [7-(4-Methanesulfonyl-phenyl)-5-methyl-pyrrolo[2,1-f][1,2,4]triazin-2-yl]-[4-(4-methyl-piperazin-1-yl)-phenyl]-amine]: the IC50 at ALK is 100 to 1000 nM; at JAK2 it was under 100 nM.
In the same order, the values of `CCOc1ccccc1-c1ccc2cnc(Nc3ccc(N4CCN(C)CC4)cc3)nn12` [Example 109, [7-(2-Ethoxy-phenyl)-pyrrolo[2,1-f][1,2,4]triazin-2-yl]-[4-(4-methyl-piperazin-1-yl)-phenyl]-amine] are under 100 nM and under 100 nM.
With `COc1ccccc1-c1c(Br)c(Br)c2cnc(Nc3ccc(N4CCOCC4)cc3)nn12` [Example 110, [5,6-Dibromo-7-(2-methoxy-phenyl)-pyrrolo[2,1-f][1,2,4]triazin-2-yl]-(4-morpholin-4-yl-phenyl)-amine], the figures for the IC50 on ALK and on JAK2 were over 10000 nM and under 100 nM, respectively.
In the same order, the values of `O=S(=O)(c1ccccc1)c1ccc2cnc(Nc3ccc(N4CCOCC4)cc3)nn12` [Example 111, (7-Benzenesulfonyl-pyrrolo[2,1-f][1,2,4]triazin-2-yl)-(4-morpholin-4-yl-phenyl)-amine] are 100 to 1000 nM and under 100 nM.
In the same order, the values of `COc1ccccc1-c1c(C)c(C)c2cnc(Nc3ccc(N4CCOCC4)cc3)nn12` [Example 112, [7-(2-Methoxy-phenyl)-5,6-dimethyl-pyrrolo[2,1-f][1,2,4]triazin-2-yl]-(4-morpholin-4-yl-phenyl)-amine] are 100 to 1000 nM and under 100 nM.
Regarding `COCC(C)Oc1ncc2ccc(-c3ccc(S(C)(=O)=O)cc3)n2n1` (centres unmarked) [Example 113, 7-(4-Methanesulfonyl-phenyl)-2-(2-methoxy-1-methyl-ethoxy)-pyrrolo[2,1-f][1,2,4]triazine], the IC50 is over 10000 nM at ALK and 1000 to 10000 nM at JAK2.
In the same order, the values of `COc1ccccc1-c1cc(C#N)c2cnc(Nc3ccc(N4CCN(C)CC4)cc3)nn12` [Example 114, 7-(2-Methoxy-phenyl)-2-[4-(4-methyl-piperazin-1-yl)-phenylamino]-pyrrolo[2,1-f][1,2,4]triazine-5-carbonitrile] are 100 to 1000 nM and under 100 nM.
Taken in the same sequence, the figures for `OCCN1CCN(c2ccc(Nc3ncc4ccc(-c5cccnc5)n4n3)cc2)CC1` [Example 115, 2-{4-[4-(7-Pyridin-3-yl-pyrrolo[2,1-f][1,2,4]triazin-2-ylamino)-phenyl]-piperazin-1-yl}-ethanol] were 100 to 1000 nM and under 100 nM.
For the molecule `OCC1CCN(c2ccc(Nc3ncc4ccc(-c5cccnc5)n4n3)cc2)CC1` [Example 116, {1-[4-(7-Pyridin-3-yl-pyrrolo[2,1-f][1,2,4]triazin-2-ylamino)-phenyl]-piperidin-4-yl}-methanol], the results for the IC50 at ALK and on JAK2 were 1000 to 10000 nM and under 100 nM, respectively.
Taken in the same sequence, the figures for `CS(=O)(=O)CCNC(=O)c1ccc(-c2ccc3cnc(Nc4ccc(N5CCOCC5)cc4)nn23)cc1` [Example 117, N-(2-Methanesulfonyl-ethyl)-4-[2-(4-morpholin-4-yl-phenylamino)-pyrrolo[2,1-f][1,2,4]triazin-7-yl]-benzamide] were 1000 to 10000 nM and under 100 nM.
In the same order, the values of `CC(C)(C)NS(=O)(=O)c1cccc(-c2ccc3cnc(Nc4ccc(OCCN5CCCC5)cc4)nn23)c1` [Example 118, N-tert-Butyl-3-{2-[4-(2-pyrrolidin-1-yl-ethoxy)-phenylamino]-pyrrolo[2,1-f][1,2,4]triazin-7-yl}-benzenesulfonamide] are 100 to 1000 nM and under 100 nM.
In the same order, the values of `CN1CCN(CCOc2ccc(Nc3ncc4ccc(-c5cccnc5)n4n3)cc2)CC1` [Example 119, {4-[2-(4-Methyl-piperazin-1-yl)-ethoxy]-phenyl}-(7-pyridin-3-yl-pyrrolo[2,1-f][1,2,4]triazin-2-yl)-amine] are 100 to 1000 nM and under 100 nM.
Regarding `CN1CCN(CCCOc2ccc(Nc3ncc4ccc(-c5cccnc5)n4n3)cc2)CC1` [Example 120, {4-[3-(4-Methyl-piperazin-1-yl)-propoxy]-phenyl}-(7-pyridin-3-yl-pyrrolo[2,1-f][1,2,4]triazin-2-yl)-amine], the values for the IC50 at ALK and at JAK2 were 100 to 1000 nM and under 100 nM, respectively.

(Values after patent US8471005B2 (Cephalon, Inc., priority 2008, dated 2013).)
